According to ChEMBL document CHEMBL2157914, “Synthesis, anti-inflammatory and antimicrobial evaluation of novel 1-acetyl-3,5-diaryl-4,5-dihydro (1H) pyrazole derivatives bearing urea, thiourea and sulfonamide moieties” (2012):
Values after ≈ are worked out from the molar mass of the structure shown. Active and inactive are the calls of the source. The calls are words filed in the database; no cut-off is given here.

Assays:
[1] = system: Aspergillus flavus; assay: Antifungal activity against Aspergillus flavus MTCC 277 after 2 to 3 days by agar well diffusion method; type: functional
[2] = system: THP-1; assay: Antiinflammatory activity in human THP1 cells assessed as inhibition of LPS-stimulated TNFalpha production at 10 uM incubated for 30 mins prior to LPS-challenge measured 24 hrs post LPS challenge by ELISA; type: functional
[3] = system: Escherichia coli; assay: Antibacterial activity against Escherichia coli MTCC 443 after 24 hrs by agar well diffusion method; type: functional; conditions: MTCC 443, 24 h
[4] = system: Bacillus subtilis; assay: Antibacterial activity against Bacillus subtilis MTCC 441 after 24 hrs by agar well diffusion method; type: functional; conditions: MTCC 441, 24 h
[5] = system: Aspergillus niger; assay: Antifungal activity against Aspergillus niger MTCC 281 after 2 to 3 days by agar well diffusion method; type: functional
[6] = system: Fusarium solani; assay: Antifungal activity against Fusarium solani MTCC 350 after 2 to 3 days by agar well diffusion method; type: functional
[7] = system: Staphylococcus aureus; assay: Antibacterial activity against Staphylococcus aureus MTCC 96 after 24 hrs by agar well diffusion method; type: functional; conditions: MTCC 96, 24 h
[8] = system: Candida albicans; assay: Antifungal activity against Candida albicans MTCC 227 after 2 to 3 days by agar well diffusion method; type: functional
[9] = system: THP-1; assay: Antiinflammatory activity in human THP1 cells assessed as inhibition of LPS-stimulated IL-6 production at 10 uM incubated for 30 mins prior to LPS-challenge measured 24 hrs post LPS-challenge by ELISA; type: functional
[10] = system: Salmonella typhimurium; assay: Antibacterial activity against Salmonella typhimurium MTCC 98 after 24 hrs by agar well diffusion method; type: functional, Salmonella enterica subsp. enterica serovar Typhimurium; conditions: Salmonella enterica, MTCC 98, 24 h
[11] = system: Aspergillus flavus; assay: Antifungal activity against Aspergillus flavus MTCC 277 up to 200 ug/mL after 2 to 3 days by agar well diffusion method; type: functional, organism-based
[12] = system: Staphylococcus aureus; assay: Antibacterial activity against Staphylococcus aureus MTCC 96 up to 200 ug/mL after 24 hrs by agar well diffusion method; type: functional, organism-based
[13] = system: Aspergillus niger; assay: Antifungal activity against Aspergillus niger MTCC 281 up to 200 ug/mL after 2 to 3 days by agar well diffusion method; type: functional, organism-based
[14] = system: Candida albicans; assay: Antifungal activity against Candida albicans MTCC 227 up to 200 ug/mL after 2 to 3 days by agar well diffusion method; type: functional, organism-based
[15] = system: Bacillus subtilis; assay: Antibacterial activity against Bacillus subtilis MTCC 441 up to 200 ug/mL after 24 hrs by agar well diffusion method; type: functional, organism-based
[16] = system: Salmonella typhimurium; assay: Antibacterial activity against Salmonella typhimurium MTCC 98 up to 200 ug/mL after 24 hrs by agar well diffusion method; type: functional, organism-based; conditions: Salmonella enterica subsp. enterica serovar Typhimurium
[17] = system: Fusarium solani; assay: Antifungal activity against Fusarium solani MTCC 350 up to 200 ug/mL after 2 to 3 days by agar well diffusion method; type: functional, organism-based

Row | Compound | MIC [1] [µg/mL] | inhibition at 10 µM [2] [%] | MIC [3] [µg/mL] | MIC [4] [µg/mL] | MIC [5] [µg/mL] | MIC [6] [µg/mL] | MIC [7] [µg/mL] | MIC [8] [µg/mL] | inhibition at 10 µM [9] [%] | MIC [10] [µg/mL] | Activity [11] | Activity [12] | Activity [13] | Activity [14] | Activity [15] | Activity [16] | Activity [17]
1 | COc1ccc(C2=NN(C(C)=O)C(c3ccc(NS(=O)(=O)c4ccc(Br)cc4)cc3)C2)cc1OC (centres undefined) | 40 (≈ 71.6 µM) | 0 | 30 (≈ 53.7 µM) | 65 (≈ 116 µM) | 15 (≈ 26.9 µM) | 15 (≈ 26.9 µM) | 30 (≈ 53.7 µM) | 25 (≈ 44.8 µM) | 0 | 30 (≈ 53.7 µM) | – | – | – | – | – | – | –
2 | COc1ccc(C2=NN(C(C)=O)C(c3ccc(NS(=O)(=O)c4ccc(OC)c(OC)c4)cc3)C2)cc1OC (centres undefined) | – | 0 | 90 (≈ 167 µM) | 90 (≈ 167 µM) | – | 90 (≈ 167 µM) | – | – | 0 | 90 (≈ 167 µM) | inactive | inactive | inactive | inactive | – | – | –
3 | COc1ccc(C2=NN(C(C)=O)C(c3ccc(NS(=O)(=O)c4ccc(OC(F)(F)F)cc4)cc3)C2)cc1OC (centres undefined) | 20 (≈ 35.5 µM) | 8 | 15 (≈ 26.6 µM) | 45 (≈ 79.9 µM) | 25 (≈ 44.4 µM) | 35 (≈ 62.1 µM) | 20 (≈ 35.5 µM) | 45 (≈ 79.9 µM) | 30 | 65 (≈ 115 µM) | – | – | – | – | – | – | –
4 | COc1ccc(C2=NN(C(C)=O)C(c3ccc(NC(=O)Nc4ccc(OC(F)(F)F)cc4)cc3)C2)cc1OC (centres undefined) | 20 (≈ 36.9 µM) | 8 | 25 (≈ 46.1 µM) | 20 (≈ 36.9 µM) | 35 (≈ 64.5 µM) | 20 (≈ 36.9 µM) | 30 (≈ 55.3 µM) | 25 (≈ 46.1 µM) | 11 | 45 (≈ 82.9 µM) | – | – | – | – | – | – | –
5 | COc1ccc(C2=NN(C(C)=O)C(c3ccc(NS(=O)(=O)c4cc(F)ccc4C)cc3)C2)cc1OC (centres undefined) | 20 (≈ 39.1 µM) | 0 | 20 (≈ 39.1 µM) | 20 (≈ 39.1 µM) | 60 (≈ 117 µM) | 20 (≈ 39.1 µM) | 55 (≈ 108 µM) | 30 (≈ 58.6 µM) | 0 | 40 (≈ 78.2 µM) | – | – | – | – | – | – | –
6 | COc1ccc(C2=NN(C(C)=O)C(c3ccc(NC(=S)Nc4ccc(F)cc4)cc3)C2)cc1OC (centres undefined) | – | 3 | 80 (≈ 162 µM) | – | – | 90 (≈ 183 µM) | 80 (≈ 162 µM) | – | 10 | – | inactive | – | inactive | inactive | inactive | inactive | –
7 | COc1ccc(C2=NN(C(C)=O)C(c3ccc(NC(=O)Nc4ccc(C(C)C)cc4)cc3)C2)cc1OC (centres undefined) | 20 (≈ 40 µM) | 11 | 30 (≈ 59.9 µM) | 40 (≈ 79.9 µM) | 40 (≈ 79.9 µM) | 20 (≈ 40 µM) | 30 (≈ 59.9 µM) | 20 (≈ 40 µM) | 16 | 55 (≈ 110 µM) | – | – | – | – | – | – | –
8 | COc1ccc(C2=NN(C(C)=O)C(c3ccc(NC(=S)Nc4ccccc4C(F)(F)F)cc3)C2)cc1OC (centres undefined) | – | 40 | 95 (≈ 175 µM) | – | – | – | – | – | 65 | – | inactive | inactive | inactive | inactive | inactive | inactive | inactive
9 | COc1ccc(C2=NN(C(C)=O)C(c3ccc(NC(=O)Nc4cccc(Cl)c4F)cc3)C2)cc1OC (centres undefined) | – | 61 | 90 (≈ 176 µM) | 90 (≈ 176 µM) | – | – | 90 (≈ 176 µM) | 90 (≈ 176 µM) | 76 | 90 (≈ 176 µM) | inactive | – | inactive | – | – | – | inactive
10 | COc1ccc(NC(=S)Nc2ccc(C3CC(c4ccc(OC)c(OC)c4)=NN3C(C)=O)cc2)cc1 (centres undefined) | 90 (≈ 178 µM) | 3 | 20 (≈ 39.6 µM) | 65 (≈ 129 µM) | – | 90 (≈ 178 µM) | 45 (≈ 89.2 µM) | 90 (≈ 178 µM) | 10 | 35 (≈ 69.4 µM) | – | – | inactive | – | – | – | –
11 | O=C(O)c1cn(C2CC2)c2cc(N3CCNCC3)c(F)cc2c1=O [CIPROFLOXACIN] | – | – | 15 (≈ 45.3 µM) | 15 (≈ 45.3 µM) | – | – | 20 (≈ 60.4 µM) | – | – | 20 (≈ 60.4 µM) | – | – | – | – | – | – | –
12 | COc1ccc(C2=NN(C(C)=O)C(c3ccc(NC(=O)Nc4cc(F)ccc4C)cc3)C2)cc1OC (centres undefined) | – | 28 | 90 (≈ 183 µM) | – | – | – | – | – | 31 | – | inactive | inactive | inactive | inactive | inactive | inactive | inactive
